According to ChEMBL document CHEMBL1201862, “PubChem BioAssay data set” (2004):
Activity calls are given as the source filed them.

How the values were obtained:
[1] = target: Dual specificity tyrosine-phosphorylation-regulated kinase 1A (Rattus norvegicus, UniProt Q63470); assay type: biochemical, Homo sapiens
[2] = target: Dual specificity protein kinase CLK1 (Homo sapiens, UniProt P49759); assay: inhibition of human CLK1 activity – biochemical, cherry-picked samples, selectivity assay for Dyrk1A inhibitor project, dose response (AID 588811)
Sequence of Dual specificity protein kinase CLK1 (P49759 whole entry, the tested form may be a part): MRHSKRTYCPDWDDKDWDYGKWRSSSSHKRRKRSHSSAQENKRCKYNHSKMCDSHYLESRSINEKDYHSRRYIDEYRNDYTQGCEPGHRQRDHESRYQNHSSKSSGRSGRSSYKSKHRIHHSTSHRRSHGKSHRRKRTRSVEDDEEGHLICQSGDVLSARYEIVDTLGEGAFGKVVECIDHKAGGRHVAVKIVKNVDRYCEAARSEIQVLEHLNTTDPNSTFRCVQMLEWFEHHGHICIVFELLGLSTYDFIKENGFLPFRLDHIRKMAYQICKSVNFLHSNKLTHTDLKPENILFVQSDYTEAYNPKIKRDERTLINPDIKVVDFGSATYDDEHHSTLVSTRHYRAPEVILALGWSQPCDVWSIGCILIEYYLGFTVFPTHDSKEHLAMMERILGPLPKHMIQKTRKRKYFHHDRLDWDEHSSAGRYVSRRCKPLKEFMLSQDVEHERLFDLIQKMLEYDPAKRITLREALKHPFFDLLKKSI

CHO = CHO cell viability loss, potency – luminescence, cytotoxicity control for TLR9-MyD88 binding inhibitor project, dose response (AID 588339); assay type: functional, cell-based, hamster; conditions: Cricetulus griseus;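 note: CHO cells stably coexpressing TLR9 and MyD88 fusions from primary screen; compound exposure lasted 48 hours before viability readout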
Beta Lactamase = Beta Lactamase (Pseudomonas aeruginosa, UniProt Q932Y6); assay: BLA reporter interference, concentration series – BLA reporter cells, FRET fluorescence, artefact control for TLR9-MyD88 binding inhibitor project, dose response (AID 588341); assay type: cell-based;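 note: cell based assay in CHO-K1 cells stably expressing beta-lactamase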
Sequence of Beta Lactamase (Q932Y6 whole entry): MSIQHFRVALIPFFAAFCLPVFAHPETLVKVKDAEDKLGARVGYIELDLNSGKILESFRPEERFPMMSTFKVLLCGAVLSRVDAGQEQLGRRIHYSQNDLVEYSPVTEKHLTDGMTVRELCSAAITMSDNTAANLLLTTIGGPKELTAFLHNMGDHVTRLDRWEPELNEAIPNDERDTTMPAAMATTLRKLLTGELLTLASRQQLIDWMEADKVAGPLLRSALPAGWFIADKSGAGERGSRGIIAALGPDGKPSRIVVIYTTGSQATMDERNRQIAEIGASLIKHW

[3] = HEK-293T viability loss after treatment – luminescence, T-cell screen hits, cytotoxicity control for TCR NF-kB inhibitor project, dose response (AID 489026); assay type: functional, cell-based;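 note: cells exposed to compound about 14 hours before the viability readout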
cells [4] = assay type: functional, cell-based
INS1 = assay: INS-1E survival protection against cytokine death – cell-based, luminescence, retest, dose response (AID 449756); assay type: functional; conditions: Rattus norvegicus;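 note: cell death triggered by IL-1 beta plus TNF-alpha plus IFN-gamma mixture; protective hits raise ATP signal compared with cytokine alone wells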
[5] = target: Serine/threonine-protein phosphatase (Candida dubliniensis (strain CD36 / CBS 7987 / NCPF 3949 / NRRLY-17841) (Yeast), UniProt B9W6M3); assay: blockers of CaCl2-induced CDRE-lacZ signaling – S. cerevisiae, luminescence, secondary, dose response (AID 2388); assay type: functional, cell-based;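 note: yeast reporter cells carrying a calcineurin-responsive lacZ construct stimulated with calcium chloride; luminescent beta-galactosidase reporter signal in whole cells rather than isolated phosphatase activity; potency for inhibition where a drop in reporter signal means calcineurin blockade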
Sequence of Serine/threonine-protein phosphatase (B9W6M3 whole entry): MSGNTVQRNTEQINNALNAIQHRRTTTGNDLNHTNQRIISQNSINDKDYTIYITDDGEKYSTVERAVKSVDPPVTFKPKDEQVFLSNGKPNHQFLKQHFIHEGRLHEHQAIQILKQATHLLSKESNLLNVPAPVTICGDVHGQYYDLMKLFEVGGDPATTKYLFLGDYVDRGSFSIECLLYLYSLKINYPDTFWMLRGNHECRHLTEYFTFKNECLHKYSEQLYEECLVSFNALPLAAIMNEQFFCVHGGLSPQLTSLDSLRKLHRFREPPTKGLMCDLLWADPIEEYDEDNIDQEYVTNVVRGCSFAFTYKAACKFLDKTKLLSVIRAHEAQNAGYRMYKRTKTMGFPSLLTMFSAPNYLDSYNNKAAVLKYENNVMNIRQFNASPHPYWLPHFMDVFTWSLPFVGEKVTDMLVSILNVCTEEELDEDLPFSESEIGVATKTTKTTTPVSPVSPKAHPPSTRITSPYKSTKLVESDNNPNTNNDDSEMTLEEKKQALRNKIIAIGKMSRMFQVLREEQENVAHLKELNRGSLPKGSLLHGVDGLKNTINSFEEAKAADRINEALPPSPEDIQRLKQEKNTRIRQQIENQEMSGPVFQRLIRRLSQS

cells [6] = assay type: functional, cell-based; remark: listed apart in the source
HEK293 = assay: EBV LMP1 TES2 canonical NF-kB signalling blockers – cell-based, HEK293, luciferase, cherry-pick, dose response (AID 588343); assay type: functional; conditions: Homo sapiens
[7] = target: T1, Kappa-type opioid receptor (Homo sapiens, UniProt P41145); assay type: functional
T1 sequence (P41145 whole entry): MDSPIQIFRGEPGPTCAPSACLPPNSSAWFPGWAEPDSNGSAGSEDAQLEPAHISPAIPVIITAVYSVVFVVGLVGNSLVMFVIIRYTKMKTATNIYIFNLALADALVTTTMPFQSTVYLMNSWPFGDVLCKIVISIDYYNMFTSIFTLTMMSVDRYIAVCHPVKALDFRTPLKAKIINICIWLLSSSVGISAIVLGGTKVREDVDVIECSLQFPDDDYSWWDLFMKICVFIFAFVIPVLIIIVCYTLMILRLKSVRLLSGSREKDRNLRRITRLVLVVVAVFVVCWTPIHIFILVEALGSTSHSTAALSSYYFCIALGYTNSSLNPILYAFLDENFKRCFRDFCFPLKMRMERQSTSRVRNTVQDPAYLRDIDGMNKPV

Paired box protein Pax-8 = Paired box protein Pax-8 (Homo sapiens, UniProt Q06710); assay: PAX8 transcriptional activity inhibition in RMG-I – RMG-I cells, luciferase, cherry-pick, dose response (AID 687027); assay type: functional, cell-based;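 note: luciferase reporter driven by Pax8 target thyroperoxidase promoter measured by SteadyGlo luminescence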
Sequence of Paired box protein Pax-8 (Q06710 whole entry): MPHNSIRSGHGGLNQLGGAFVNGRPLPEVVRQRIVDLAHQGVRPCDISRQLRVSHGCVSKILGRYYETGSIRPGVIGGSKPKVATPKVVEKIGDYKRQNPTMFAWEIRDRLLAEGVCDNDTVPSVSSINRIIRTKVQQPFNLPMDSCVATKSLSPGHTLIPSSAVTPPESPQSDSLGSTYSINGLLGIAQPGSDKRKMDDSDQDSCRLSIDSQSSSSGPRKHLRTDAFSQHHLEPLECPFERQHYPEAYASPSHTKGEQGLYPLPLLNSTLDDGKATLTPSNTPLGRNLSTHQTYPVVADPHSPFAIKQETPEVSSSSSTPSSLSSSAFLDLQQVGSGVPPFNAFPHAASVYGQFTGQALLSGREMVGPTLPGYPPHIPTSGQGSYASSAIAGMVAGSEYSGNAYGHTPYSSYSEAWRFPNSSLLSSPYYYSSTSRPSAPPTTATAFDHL

[8] = target: T1, Kappa-type opioid receptor; assay type: functional; remark: listed apart in the source
[9] = target: ATP-dependent molecular chaperone HSP82 (Candida albicans (strain WO-1) (Yeast), UniProt C4YTQ8); assay: steroid-induced GRE reporter decrease in yeast – S. cerevisiae, luminescence, Hsp90 inhibitor project, dose response (AID 2400); assay type: functional, cell-based;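 note: beta-galactosidase luminescence from glucocorticoid response element reporter as proxy for Hsp90 function; inhibitor potency where signal loss means Hsp90 inhibition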
Sequence of ATP-dependent molecular chaperone HSP82 (C4YTQ8 whole entry): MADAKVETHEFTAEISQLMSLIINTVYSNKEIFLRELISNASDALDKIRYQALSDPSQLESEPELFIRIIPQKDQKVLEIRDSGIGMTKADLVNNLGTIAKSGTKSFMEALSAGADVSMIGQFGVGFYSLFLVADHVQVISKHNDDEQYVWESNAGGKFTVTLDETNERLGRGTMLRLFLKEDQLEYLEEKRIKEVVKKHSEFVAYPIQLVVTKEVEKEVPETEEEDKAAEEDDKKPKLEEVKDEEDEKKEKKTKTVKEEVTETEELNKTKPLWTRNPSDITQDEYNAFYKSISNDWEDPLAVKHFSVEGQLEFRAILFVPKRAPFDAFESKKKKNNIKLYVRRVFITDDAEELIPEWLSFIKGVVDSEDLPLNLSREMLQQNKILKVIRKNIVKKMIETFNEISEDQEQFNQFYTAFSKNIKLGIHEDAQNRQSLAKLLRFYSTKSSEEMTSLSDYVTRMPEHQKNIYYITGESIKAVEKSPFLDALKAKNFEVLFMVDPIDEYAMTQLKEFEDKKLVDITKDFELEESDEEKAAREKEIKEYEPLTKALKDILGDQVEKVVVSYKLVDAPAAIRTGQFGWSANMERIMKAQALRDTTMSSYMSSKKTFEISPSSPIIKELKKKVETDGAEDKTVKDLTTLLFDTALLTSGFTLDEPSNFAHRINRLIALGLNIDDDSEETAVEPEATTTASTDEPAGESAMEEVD

[10] = test system: Streptococcus sp. 'group A'; assay: Streptococcus pyogenes SK(-)GAS viability under kanamycin – luminescence, BacTiterGlo, confirmation, counter-screen for streptokinase expression inhibitor project, dose response (AID 1900); assay type: functional, organism-based; conditions: Streptococcus sp. 'group A'
Streptokinase A = target: T2, Streptokinase A (Streptococcus pyogenes serotype M1, UniProt P10520); assay: viability-normalized secreted streptokinase activity reduction – plasminogen activation absorbance, OD405, dose response (AID 1914); assay type: functional, Streptococcus pyogenes M1 GAS;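 note: secreted streptokinase activity via plasminogen activation per viability signal from cell pellet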
T2 sequence (P10520 whole entry): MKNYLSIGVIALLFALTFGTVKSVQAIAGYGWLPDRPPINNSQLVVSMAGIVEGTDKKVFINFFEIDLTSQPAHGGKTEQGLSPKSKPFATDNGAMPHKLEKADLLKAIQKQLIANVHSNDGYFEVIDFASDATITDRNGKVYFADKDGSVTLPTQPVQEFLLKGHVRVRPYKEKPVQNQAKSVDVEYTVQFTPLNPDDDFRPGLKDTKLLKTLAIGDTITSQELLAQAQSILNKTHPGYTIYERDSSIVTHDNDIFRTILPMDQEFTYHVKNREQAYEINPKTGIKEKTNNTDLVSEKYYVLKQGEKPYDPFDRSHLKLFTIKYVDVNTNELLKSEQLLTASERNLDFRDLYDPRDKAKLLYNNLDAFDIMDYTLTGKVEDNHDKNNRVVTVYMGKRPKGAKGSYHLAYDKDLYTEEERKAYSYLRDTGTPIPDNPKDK

[11] = NIH-3T3 fibroblast cytotoxicity, dose response, cytotoxicity control, cell-based, fluorescence, Alamar Blue, secondary assay (AID 2327); assay type: functional;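 note: NIH-3T3 mouse fibroblasts cultured with fluconazole at 8 µg/mL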
Beta-galactosidase = Beta-galactosidase (Escherichia coli, UniProt Q8VNN2); assay type: functional
Sequence of Beta-galactosidase (Q8VNN2 whole entry): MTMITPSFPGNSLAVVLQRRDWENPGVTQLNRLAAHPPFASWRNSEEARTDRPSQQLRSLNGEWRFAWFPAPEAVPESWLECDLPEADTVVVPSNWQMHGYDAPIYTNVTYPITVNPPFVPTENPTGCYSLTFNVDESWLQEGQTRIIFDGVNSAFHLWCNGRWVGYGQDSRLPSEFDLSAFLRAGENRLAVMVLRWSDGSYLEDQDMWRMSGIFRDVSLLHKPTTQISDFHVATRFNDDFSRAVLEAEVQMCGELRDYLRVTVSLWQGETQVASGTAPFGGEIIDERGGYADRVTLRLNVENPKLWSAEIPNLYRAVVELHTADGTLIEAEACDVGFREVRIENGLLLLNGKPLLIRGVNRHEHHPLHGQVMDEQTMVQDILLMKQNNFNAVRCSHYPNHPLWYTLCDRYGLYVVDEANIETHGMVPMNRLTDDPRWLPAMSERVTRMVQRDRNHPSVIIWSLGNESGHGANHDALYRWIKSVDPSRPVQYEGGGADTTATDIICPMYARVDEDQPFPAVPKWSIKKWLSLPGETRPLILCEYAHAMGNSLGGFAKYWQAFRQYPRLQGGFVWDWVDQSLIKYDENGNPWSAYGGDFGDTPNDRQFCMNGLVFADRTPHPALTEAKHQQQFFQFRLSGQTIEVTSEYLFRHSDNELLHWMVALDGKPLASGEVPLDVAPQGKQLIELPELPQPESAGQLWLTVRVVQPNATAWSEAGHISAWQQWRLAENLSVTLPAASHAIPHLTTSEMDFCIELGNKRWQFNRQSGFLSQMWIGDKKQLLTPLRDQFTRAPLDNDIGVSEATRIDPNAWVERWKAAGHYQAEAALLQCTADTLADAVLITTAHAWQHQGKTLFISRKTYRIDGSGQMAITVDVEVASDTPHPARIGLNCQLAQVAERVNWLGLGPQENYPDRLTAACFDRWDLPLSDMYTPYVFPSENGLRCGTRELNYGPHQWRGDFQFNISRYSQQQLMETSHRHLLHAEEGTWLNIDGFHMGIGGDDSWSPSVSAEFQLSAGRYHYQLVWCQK

[12] = microbe, parasite or virus in culture; assay type: functional; conditions: Mycobacterium tuberculosis
Nonstructural protein 1 = Nonstructural protein 1 (Influenza A virus, UniProt Q194T2); assay type: functional, Influenza A virus (A/California/07/2009(H1N1))
Sequence of Nonstructural protein 1 (Q194T2 whole entry): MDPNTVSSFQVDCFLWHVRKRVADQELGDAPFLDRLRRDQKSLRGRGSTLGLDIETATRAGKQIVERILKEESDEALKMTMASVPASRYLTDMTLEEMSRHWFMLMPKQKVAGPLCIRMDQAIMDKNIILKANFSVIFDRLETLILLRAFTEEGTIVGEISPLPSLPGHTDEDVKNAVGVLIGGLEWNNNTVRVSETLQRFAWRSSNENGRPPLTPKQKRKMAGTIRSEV

[13] = fluconazole-exposed Candida albicans growth modulators – fluorescence, retest, confirmation (AID 2467); assay type: functional, cell-based
Streptococcus = assay: GAS UMAA2166 growth inhibition – luminescence, BacTiterGlo, counter-screen for streptokinase expression inhibitor project, dose response (AID 1915); assay type: functional, organism-based; conditions: Streptococcus;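 note: potency for reduction of bacterial viability or growth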
[14] = target: T3, Endoribonuclease toxin MazF (Escherichia coli K-12, UniProt P0AE70); assay: substrate-only fluorescence increase artefacts – biochemical, single-stranded RNase substrate, counter-screen for MazEF activator project, dose response (AID 588502); assay type: functional
T3 sequence (P0AE70 whole entry): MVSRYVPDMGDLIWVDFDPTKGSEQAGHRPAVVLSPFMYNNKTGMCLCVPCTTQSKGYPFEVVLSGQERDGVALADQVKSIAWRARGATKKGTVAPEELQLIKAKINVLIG

[15] = target: T4, Sentrin-specific protease 1 (Homo sapiens, UniProt Q9P0U3); assay: SENP1 catalytic domain blockers, concentration series – biochemical, kinetic FRET, dose response (AID 651697); assay type: functional; conditions: read-out: IC50_Mean
T4 sequence (Q9P0U3 whole entry): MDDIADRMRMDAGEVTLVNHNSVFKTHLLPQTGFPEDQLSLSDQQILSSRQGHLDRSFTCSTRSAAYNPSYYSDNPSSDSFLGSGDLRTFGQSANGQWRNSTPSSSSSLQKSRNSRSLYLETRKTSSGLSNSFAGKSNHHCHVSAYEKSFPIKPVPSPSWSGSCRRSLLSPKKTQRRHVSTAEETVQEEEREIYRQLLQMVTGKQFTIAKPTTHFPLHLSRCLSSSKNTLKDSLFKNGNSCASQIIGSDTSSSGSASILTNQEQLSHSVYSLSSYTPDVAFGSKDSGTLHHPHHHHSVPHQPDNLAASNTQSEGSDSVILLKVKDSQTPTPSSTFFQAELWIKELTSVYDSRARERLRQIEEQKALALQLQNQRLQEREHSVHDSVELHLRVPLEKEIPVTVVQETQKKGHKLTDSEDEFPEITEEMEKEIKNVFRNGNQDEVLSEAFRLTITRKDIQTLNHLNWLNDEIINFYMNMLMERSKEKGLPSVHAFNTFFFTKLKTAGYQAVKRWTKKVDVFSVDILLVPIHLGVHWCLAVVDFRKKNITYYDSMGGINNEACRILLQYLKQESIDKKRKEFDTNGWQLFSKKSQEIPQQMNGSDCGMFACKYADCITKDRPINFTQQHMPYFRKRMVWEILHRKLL

[16] = target: T3, Endoribonuclease toxin MazF; assay: activation of MazEF endoribonuclease cleavage – biochemical, fluorescence, single-stranded RNA substrate, uHTS hits, dose response (AID 588481); assay type: functional
[17] = target: T4, Sentrin-specific protease 1; assay: Dose response confirmation of small molecule inhibitors of the catalytic domain of the SUMO protease, SENP1 in a FRET assay.; assay type: functional; conditions: read-out: IC50_Mean
Hexokinase-1 = target: T5, Hexokinase-1 (Homo sapiens, UniProt P19367); assay: SAR analysis of small molecule inhibitors of hexokinase domain containing I (HKDC1) in the hexokinase 1 selectivity assay. [Related pubchem assays (depositor defined):AID493160, AID493190]; assay type: functional
T5 sequence (P19367 whole entry): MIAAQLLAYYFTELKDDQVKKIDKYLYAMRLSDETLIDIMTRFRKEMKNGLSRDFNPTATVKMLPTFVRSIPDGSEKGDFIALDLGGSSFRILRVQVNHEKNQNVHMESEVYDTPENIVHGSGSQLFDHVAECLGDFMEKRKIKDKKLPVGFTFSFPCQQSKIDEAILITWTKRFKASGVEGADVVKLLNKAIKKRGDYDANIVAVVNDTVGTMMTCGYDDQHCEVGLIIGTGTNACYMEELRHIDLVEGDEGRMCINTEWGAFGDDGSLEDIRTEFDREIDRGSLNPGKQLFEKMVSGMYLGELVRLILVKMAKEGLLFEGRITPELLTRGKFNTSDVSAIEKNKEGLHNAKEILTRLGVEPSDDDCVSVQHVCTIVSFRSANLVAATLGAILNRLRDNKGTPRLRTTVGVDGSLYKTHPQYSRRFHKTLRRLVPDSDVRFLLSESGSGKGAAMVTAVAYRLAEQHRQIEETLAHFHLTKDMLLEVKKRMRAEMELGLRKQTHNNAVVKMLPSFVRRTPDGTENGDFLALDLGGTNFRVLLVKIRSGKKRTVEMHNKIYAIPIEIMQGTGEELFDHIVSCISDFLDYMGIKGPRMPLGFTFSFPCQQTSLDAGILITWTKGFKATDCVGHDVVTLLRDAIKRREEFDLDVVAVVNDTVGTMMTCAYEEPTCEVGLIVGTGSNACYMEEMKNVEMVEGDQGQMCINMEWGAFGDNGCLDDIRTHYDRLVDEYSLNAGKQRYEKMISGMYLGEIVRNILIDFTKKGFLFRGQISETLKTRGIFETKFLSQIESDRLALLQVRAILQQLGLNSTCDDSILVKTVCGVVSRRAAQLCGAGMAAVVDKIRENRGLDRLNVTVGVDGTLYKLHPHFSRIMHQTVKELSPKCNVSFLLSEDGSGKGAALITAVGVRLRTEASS

Hexokinase HKDC1 = target: T6, Hexokinase HKDC1 (Homo sapiens, UniProt Q2TB90); assay: SAR analysis of small molecule inhibitors of hexokinase domain containing I (HKDC1). [Related pubchem assays (depositor defined):AID493160, AID493190]; assay type: functional
T6 sequence (Q2TB90 whole entry): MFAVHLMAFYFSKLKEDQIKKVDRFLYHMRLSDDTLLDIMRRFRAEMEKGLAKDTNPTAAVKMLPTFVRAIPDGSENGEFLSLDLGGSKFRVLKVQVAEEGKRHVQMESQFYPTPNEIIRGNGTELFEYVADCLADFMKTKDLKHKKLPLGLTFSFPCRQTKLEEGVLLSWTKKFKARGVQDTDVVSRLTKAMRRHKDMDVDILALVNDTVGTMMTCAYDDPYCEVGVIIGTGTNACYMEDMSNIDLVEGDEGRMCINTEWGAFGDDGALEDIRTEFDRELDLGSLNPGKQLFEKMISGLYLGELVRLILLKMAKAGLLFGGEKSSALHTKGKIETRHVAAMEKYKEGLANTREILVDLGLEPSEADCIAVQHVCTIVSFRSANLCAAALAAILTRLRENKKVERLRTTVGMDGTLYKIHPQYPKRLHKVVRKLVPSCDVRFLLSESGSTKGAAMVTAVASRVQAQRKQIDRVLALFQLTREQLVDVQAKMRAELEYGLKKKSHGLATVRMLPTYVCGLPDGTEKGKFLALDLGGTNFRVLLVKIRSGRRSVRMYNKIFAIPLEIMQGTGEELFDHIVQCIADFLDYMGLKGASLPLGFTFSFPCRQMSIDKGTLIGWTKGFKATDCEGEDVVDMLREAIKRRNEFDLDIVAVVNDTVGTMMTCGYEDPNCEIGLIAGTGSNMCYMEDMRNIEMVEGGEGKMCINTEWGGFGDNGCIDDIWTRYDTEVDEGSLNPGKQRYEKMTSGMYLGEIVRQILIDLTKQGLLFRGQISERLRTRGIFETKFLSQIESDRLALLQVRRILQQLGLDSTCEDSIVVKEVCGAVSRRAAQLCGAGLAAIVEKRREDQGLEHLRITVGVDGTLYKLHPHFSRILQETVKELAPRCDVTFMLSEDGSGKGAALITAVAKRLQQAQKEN

For COc1ccc(-c2cc(NCCc3ccncc3)n3ncnc3n2)cc1, the AC50 [1] was > 120 µM (inactive) and the AC50 [2] was 18.6 µM (active).
With CCC(=O)c1ccc(/C=C/c2nc3ccccc3n2C)o1 the IC50 (CHO) was > 49.7 µM (inactive) and the IC50 (Beta Lactamase) was 5.11 µM (active).
For C=CCNC(=S)N/N=C(\C)c1ccccn1, the IC50 [3] was > 80 µM (inactive), the EC50 (cells [4]) was 9.83 µM (active) and the AC50 (INS1) was < 0.195 µM (active). The EC50 [5] was > 180 µM (inactive), the EC50 (cells [6]) was > 350 µM (not active) and the AC50 (HEK293) was 0.493 µM (active). For the same molecule, the IC50 [7] was > 32 µM, the AC50 (Paired box protein Pax-8) was < 0.26 µM (active) and the IC50 [8] was 3.27 µM (active). The EC50 [9] was > 150 µM (inactive), the EC50 [10] was 2 µM (active) and the EC50 (Streptokinase A) was > 150 µM (not active). For the same molecule, the EC50 [11] was 40.7 µM (inconclusive), the EC50 (Beta-galactosidase) was > 31.5 µM (inactive) and the CC50 [12] was < 0.08 µM (active). For the same molecule, the IC50 (Nonstructural protein 1) was 2.5 µM (active), the EC50 [13] was 0.146 µM (active) and the EC50 (Streptococcus) was > 150 µM (not active).
For Cc1cc(C(=O)Nc2sc3c(c2C#N)CCCC3)no1, the EC50 [5] was > 180 µM (inactive), the EC50 [9] was 24.9 µM (active) and the EC50 [11] was > 160 µM (inactive). The EC50 [13] was 2.21 µM (active).
With Cc1ccc2nc3sc(C(=O)NCc4ccco4)c(N)c3cc2c1 the EC50 [14] was 65.2 µM (inactive), the IC50 [15] was 4.66 µM (active) and the EC50 [16] was > 99 µM (inactive). The IC50 [17] was 7.17 µM (active).
With Cc1cc(C)n(-c2nc3ccccc3nc2Nc2ccc3[nH]c(O)nc3c2)n1 the EC50 [14] was > 99 µM (inactive) and the EC50 [16] was > 99 µM (inactive).
With O=C(Nc1cccc(C(F)(F)F)c1)c1cccc(NC(=O)c2cccc3ccccc23)c1 the IC50 (Hexokinase-1) was > 80 µM (inactive) and the IC50 (Hexokinase HKDC1) was > 80 µM (inactive).
In the case of O=C(Nc1cccc(C(F)(F)F)c1)c1cccc(NC(=O)c2ccc3[nH]nnc3c2)c1, the IC50 (Hexokinase-1) is reported as > 80 µM (inactive) and the IC50 (Hexokinase HKDC1) is reported as > 80 µM (inactive).
